# Measurements from publication PMC6277767, “Broad and Region-Specific Impacts of the Synthetic Cannabinoid CP 55,940 in Adolescent and Adult Female Mouse Brains” (Frontiers in Molecular Neuroscience, 2018).
# Tested on: CD1 female mouse brain lipidome
# Assay: Brain-region lipid levels (HPLC/MS/MS lipidomics) 2 h after single i.p. 3 mg/kg CP 55,940 vs vehicle
# Assay type: in vivo
# Settings: thalamus
# Experimental: The Bloomington Institutional Animal Care and Use Committee of Indiana University reviewed and approved the animal procedures. Female mice from the CD1 strain were utilized to match our study examining THC’s effects on the brain lipidome ([Leishman et al., 2018]). Mice were given a single i.p. injection of either 3 mg/kg CP or 1:1:18 cremophor:ethanol:saline vehicle (please refer to the section “3 mg/kg CP Is Relevant for Synthetic Cannabinoid Abuse and Has Stronger Effects on the Female Mouse Brain Lipidome During Adolescence” for a justification of dose and use of female mice). Three different age groups were given injections: PND 35 and PND 50 adolescents, and adult mice (PND 113). At least eight mice in each age group received CP and at least eight received vehicle. Matching the THC study time course ([Leishman et al., 2018]), mice were sacrificed via rapid decapitation 2 h after injection. Brains were immediately removed and flash-frozen in liquid nitrogen, and then stored at -80°C until dissections were performed. Brains were dissected on an ice-cold dissection plate into the following regions: STR, HIPP, CER, THAL, CTX, HYP, MID, and STEM. These abbreviations for these brain areas will be used exclusively when discussing the results generated by these specific dissections. Each dissected area was immediately placed in liquid nitrogen and then stored at -80°C until used for lipid extraction.
# Tissue extracts were performed as previously described ([Bradshaw et al., 2006]; [Stuart et al., 2013]; [Raboune et al., 2014]; [Leishman et al., 2016a],[b], [2017], [2018]). First, samples were shock frozen in liquid nitrogen, weighed, and transferred to a centrifuge tube. The mass of the largest sample was multiplied by 50 to determine how many milliliters of HPLC-grade methanol (Fisher, Fair Lawn, NJ, United States) to add. Then, samples were spiked with 500 pmol deuterium-labeled NAGly (d8NAGly; Cayman Chemical, Ann Arbor, MI, United States). Samples were placed on ice in darkness for 2 h then individually homogenized and centrifuged at 19,000 × g for 20 min at 20°C. Supernatants were diluted with HPLC water (purified in house) to make a solution of 75% water, 25% supernatant. Lipids were partially purified on C18 solid phase extraction columns (Agilent, Palo Alto, CA, United States). A series of four elutions with 1.5 mL of 60%, 75%, 85%, and 100% methanol were collected ([Stuart et al., 2013]; [Leishman et al., 2016a],[b], [2018]).
# As previously described ([Bradshaw et al., 2006]; [Tan et al., 2006]; [Smoum et al., 2010]; [Stuart et al., 2013]; [Tortoriello et al., 2013]; [Raboune et al., 2014]; [Leishman et al., 2016a],[b], [2017], [2018]), samples were analyzed using an Applied Biosystems API 3000 triple quadrupole mass spectrometer with electrospray ionization (Foster City, CA, United States). Using an Agilent XDB-C18 reversed phase analytical column and optimized mobile phase gradients, 20 μL from each elution were chromatographed. Two Shimadzu 10ADvp pumps (Columbia, MD, United States) provided the pressure for gradient elution. Mobile phase A: 20% methanol, 80% water (v/v) and 1 mM ammonium acetate (Sigma, St. Louis, MO, United States). Mobile phase B: 100% methanol, 1 mM ammonium acetate. Every method run began with 0% mobile phase B, reached 100% mobile phase B flowing at 0.2 mL/min, and gradually returned to 0% mobile phase B.
# This screening library will be referred to as the lipidome when discussing data from this study. HPLC/MS/MS data were analyzed using Analyst software (Applied Biosystems) ([Bradshaw et al., 2006]; [Tan et al., 2006]; [Stuart et al., 2013]; [Tortoriello et al., 2013]; [Raboune et al., 2014]; [Leishman et al., 2016a],[b], [2017], [2018]). Chromatograms (Supplementary Figure 3) were generated by determining the retention time of analytes from the analytical column with a [M-1] or [M+1] parent peak and a fragmentation peak corresponding to the programmed values. […]
# [1] = WT adult female mice, 3mg/kg CP 55,940
smiles,measurement,setting,value
"CCCCCCC(C)(C)c1ccc([C@@H]2C[C@H](O)CC[C@H]2CCCO)c(O)c1 [CP 55,940]","N-docosahexaenoyl ethanolamine level, Mean",[1],2.99E-11
same,"N-docosahexaenoyl glycine level, Mean",[1],1.3E-13
same,"N-docosahexaenoyl phenylalanine level, Mean",[1],4.66E-14
same,"N-linoleoyl GABA level, Mean",[1],7.91E-12
same,"N-linoleoyl alanine level, Mean",[1],5.44E-13
same,"N-linoleoyl ethanolamine level, Mean",[1],1.72E-11
same,"N-linoleoyl glycine level, Mean",[1],9.08E-14
same,"N-linoleoyl serine level, Mean",[1],4.53E-11
same,"N-oleoyl GABA level, Mean",[1],1.73E-11
same,"N-oleoyl alanine level, Mean",[1],2.34E-12
same,"N-oleoyl ethanolamine level, Mean",[1],1.6E-10
same,"N-oleoyl glycine level, Mean",[1],4.19E-13
same,"N-oleoyl leucine level, Mean",[1],7.81E-13
same,"N-oleoyl methionine level, Mean",[1],5.74E-13
same,"N-oleoyl phenylalanine level, Mean",[1],4.73E-13
same,"N-oleoyl serine level, Mean",[1],2E-10
same,"N-palmitoyl GABA level, Mean",[1],2.74E-11
same,"N-palmitoyl alanine level, Mean",[1],2.22E-12
same,"N-palmitoyl ethanolamine level, Mean",[1],6.49E-11
same,"N-palmitoyl glycine level, Mean",[1],2.5E-12
same,"N-palmitoyl leucine level, Mean",[1],2.46E-12
same,"N-palmitoyl methionine level, Mean",[1],3.82E-12
same,"N-palmitoyl phenylalanine level, Mean",[1],4.13E-13
same,"N-palmitoyl serine level, Mean",[1],1.13E-11
same,"N-palmitoyl tyrosine level, Mean",[1],3.42E-13
same,"N-palmitoyl valine level, Mean",[1],1.9E-13
same,"N-stearoyl GABA level, Mean",[1],1.7E-11
same,"N-stearoyl alanine level, Mean",[1],2.97E-12
same,"N-stearoyl ethanolamine level, Mean",[1],1.06E-11
same,"N-stearoyl glycine level, Mean",[1],1.83E-12
same,"N-stearoyl leucine level, Mean",[1],1.05E-12
same,"N-stearoyl methionine level, Mean",[1],4.98E-13
same,"N-stearoyl phenylalanine level, Mean",[1],2.37E-13
same,"N-stearoyl serine level, Mean",[1],2.33E-11
same,"N-stearoyl tyrosine level, Mean",[1],8.82E-14
same,"Oleic acid level, Mean",[1],4.55E-10
same,"PGE2 level, Mean",[1],1.93E-10
same,"PhosphoLEA level, Mean",[1],3.87E-12
same,2-arachidonoyl glycerol: Direction (relative to Veh),"adult, 3 mg/kg CP 55,940",↓
same,2-arachidonoyl glycerol: Magnitude (x Veh level),"adult, 3 mg/kg CP 55,940",0.81 x Veh level
same,2-linoleoyl glycerol: Direction (relative to Veh),"adult, 3 mg/kg CP 55,940",↓
same,2-linoleoyl glycerol: Magnitude (x Veh level),"adult, 3 mg/kg CP 55,940",0.77 x Veh level
same,6-ketoPGF1α: Direction (relative to Veh),"adult, 3 mg/kg CP 55,940",↑
same,6-ketoPGF1α: Magnitude (x Veh level),"adult, 3 mg/kg CP 55,940",1.23 x Veh level
same,Arachidonic acid: Direction (relative to Veh),"adult, 3 mg/kg CP 55,940",↓
same,Arachidonic acid: Magnitude (x Veh level),"adult, 3 mg/kg CP 55,940",0.83 x Veh level
same,N-arachidonoyl GABA: Direction (relative to Veh),"adult, 3 mg/kg CP 55,940",↓
same,N-arachidonoyl GABA: Magnitude (x Veh level),"adult, 3 mg/kg CP 55,940",0.80 x Veh level
same,N-arachidonoyl alanine: Direction (relative to Veh),"adult, 3 mg/kg CP 55,940",↓
same,N-arachidonoyl alanine: Magnitude (x Veh level),"adult, 3 mg/kg CP 55,940",0.63 x Veh level
same,N-arachidonoyl ethanolamine: Direction (relative to Veh),"adult, 3 mg/kg CP 55,940",↓
same,N-arachidonoyl ethanolamine: Magnitude (x Veh level),"adult, 3 mg/kg CP 55,940",0.81 x Veh level
same,N-arachidonoyl glycine: Direction (relative to Veh),"adult, 3 mg/kg CP 55,940",↓
same,N-arachidonoyl glycine: Magnitude (x Veh level),"adult, 3 mg/kg CP 55,940",0.63 x Veh level
same,N-oleoyl ethanolamine: Direction (relative to Veh),"adult, 3 mg/kg CP 55,940",↓
same,N-oleoyl ethanolamine: Magnitude (x Veh level),"adult, 3 mg/kg CP 55,940",0.79 x Veh level
same,N-palmitoyl GABA: Direction (relative to Veh),"adult, 3 mg/kg CP 55,940",↑
same,N-palmitoyl GABA: Magnitude (x Veh level),"adult, 3 mg/kg CP 55,940",1.13 x Veh level
same,N-palmitoyl ethanolamine: Direction (relative to Veh),"adult, 3 mg/kg CP 55,940",↓
same,N-palmitoyl ethanolamine: Magnitude (x Veh level),"adult, 3 mg/kg CP 55,940",0.86 x Veh level
same,N-palmitoyl leucine: Direction (relative to Veh),"adult, 3 mg/kg CP 55,940",↑
same,N-palmitoyl leucine: Magnitude (x Veh level),"adult, 3 mg/kg CP 55,940",1.36 x Veh level
same,N-palmitoyl methionine: Direction (relative to Veh),"adult, 3 mg/kg CP 55,940",↑
same,N-palmitoyl methionine: Magnitude (x Veh level),"adult, 3 mg/kg CP 55,940",1.25 x Veh level
same,N-palmitoyl valine: Direction (relative to Veh),"adult, 3 mg/kg CP 55,940",↑
same,N-palmitoyl valine: Magnitude (x Veh level),"adult, 3 mg/kg CP 55,940",1.95 x Veh level
same,Oleic acid: Direction (relative to Veh),"adult, 3 mg/kg CP 55,940",↓
same,Oleic acid: Magnitude (x Veh level),"adult, 3 mg/kg CP 55,940",0.78 x Veh level
same,2-linoleoyl glycerol Direction (relative to Veh),"PND 35, 3 mg/kg CP 55,940",↓
same,2-linoleoyl glycerol Magnitude (x Veh level),"PND 35, 3 mg/kg CP 55,940",0.79 x Veh level
same,6-ketoPGF1α Direction (relative to Veh),"PND 35, 3 mg/kg CP 55,940",↓
same,6-ketoPGF1α Magnitude (x Veh level),"PND 35, 3 mg/kg CP 55,940",0.77 x Veh level
same,N-arachidonoyl GABA Direction (relative to Veh),"PND 35, 3 mg/kg CP 55,940",↓
same,N-arachidonoyl GABA Magnitude (x Veh level),"PND 35, 3 mg/kg CP 55,940",0.72 x Veh level
same,N-arachidonoyl alanine Magnitude (x Veh level),"PND 35, 3 mg/kg CP 55,940",0.82 x Veh level
same,"N-arachidonoyl alanine, Direction (relative to Veh)","PND 35, 3 mg/kg CP 55,940",↓
same,"N-arachidonoyl ethanolamine, Direction (relative to Veh)","PND 35, 3 mg/kg CP 55,940",↑
same,"N-arachidonoyl ethanolamine, Magnitude (x Veh level)","PND 35, 3 mg/kg CP 55,940",1.21 x Veh level
same,N-arachidonoyl glycine Direction (relative to Veh),"PND 35, 3 mg/kg CP 55,940",↓
same,N-arachidonoyl glycine Magnitude (x Veh level),"PND 35, 3 mg/kg CP 55,940",0.86 x Veh level
same,"N-arachidonoyl phenylalanine, Direction (relative to Veh)","PND 35, 3 mg/kg CP 55,940",↑
same,"N-arachidonoyl phenylalanine, Magnitude (x Veh level)","PND 35, 3 mg/kg CP 55,940",1.20 x Veh level
same,N-arachidonoyl serine Direction (relative to Veh),"PND 35, 3 mg/kg CP 55,940",↓
same,N-arachidonoyl serine Magnitude (x Veh level),"PND 35, 3 mg/kg CP 55,940",0.81 x Veh level
same,N-arachidonoyl taurine Direction (relative to Veh),"PND 35, 3 mg/kg CP 55,940",↓
same,N-arachidonoyl taurine Magnitude (x Veh level),"PND 35, 3 mg/kg CP 55,940",0.87 x Veh level
same,N-docosahexaenoyl GABA Direction (relative to Veh),"PND 35, 3 mg/kg CP 55,940",↓
same,N-docosahexaenoyl GABA Magnitude (x Veh level),"PND 35, 3 mg/kg CP 55,940",0.71 x Veh level
same,N-docosahexaenoyl alanine Direction (relative to Veh),"PND 35, 3 mg/kg CP 55,940",↓
same,N-docosahexaenoyl alanine Magnitude (x Veh level),"PND 35, 3 mg/kg CP 55,940",0.69 x Veh level
same,N-docosahexaenoyl glycine Direction (relative to Veh),"PND 35, 3 mg/kg CP 55,940",↓
same,N-docosahexaenoyl glycine Magnitude (x Veh level),"PND 35, 3 mg/kg CP 55,940",0.85 x Veh level
same,N-docosahexaenoyl leucine Direction (relative to Veh),"PND 35, 3 mg/kg CP 55,940",↑
same,N-docosahexaenoyl leucine Magnitude (x Veh level),"PND 35, 3 mg/kg CP 55,940",1.78 x Veh level
same,N-docosahexaenoyl phenylalanine Direction (relative to Veh),"PND 35, 3 mg/kg CP 55,940",↑
same,N-docosahexaenoyl phenylalanine Magnitude (x Veh level),"PND 35, 3 mg/kg CP 55,940",1.25 x Veh level
same,"N-linoleoyl ethanolamine, Direction (relative to Veh)","PND 35, 3 mg/kg CP 55,940",↑
same,"N-linoleoyl ethanolamine, Magnitude (x Veh level)","PND 35, 3 mg/kg CP 55,940",1.29 x Veh level
same,N-oleoyl GABA Magnitude (x Veh level),"PND 35, 3 mg/kg CP 55,940",0.81 x Veh level
same,N-oleoyl GABA direction (relative to Veh),"PND 35, 3 mg/kg CP 55,940",↓
same,N-oleoyl alanine Magnitude (x Veh level),"PND 35, 3 mg/kg CP 55,940",0.84 x Veh level
same,N-oleoyl alanine direction (relative to Veh),"PND 35, 3 mg/kg CP 55,940",↓
